Values after ≈ are worked out from the molar mass of the structure shown.

The first data set can be described thus: water solubility. It counts as physicochemical. The conditions noted are these: ph 7 buffer, pH 7.
In the case of `CCCC(=O)OC[C@H]1O[C@@H](n2cnc3c(N)ncnc32)[C@@H](O)[C@@H]1O` [Example 3, 9-(5-O-butyryl-β-D-arabinofuranosyl)adenine], the water solubility is 16100 µg/mL (≈ 47.7 mM).

The data set is the same for the next values; noted with them: ph 7 buffer, pH 7, aqueous buffer.
Take `CC(=O)OC[C@H]1O[C@@H](n2cnc3c(N)ncnc32)[C@@H](O)[C@@H]1O` [Example 1, 9-(5-O-acetyl-β-D-arabinofuranosyl)adenine]: the concentration in solution (solubility) was 9900 µg/mL (≈ 32 mM). Take `CCC(=O)OC[C@H]1O[C@@H](n2cnc3c(N)ncnc32)[C@@H](O)[C@@H]1O` [Example 2, 9-(5-O-propionyl-β-D-arabinofuranosyl)adenine]: the concentration in solution (solubility) came to 9200 µg/mL (≈ 28.5 mM). Take `CCCCC(=O)OC[C@H]1O[C@@H](n2cnc3c(N)ncnc32)[C@@H](O)[C@@H]1O` [Example 4]: the solubility (in general, the dissolved amount per volume that the medium holds) worked out at 8400 µg/mL (≈ 23.9 mM). On to `CC(C)CC(=O)OC[C@H]1O[C@@H](n2cnc3c(N)ncnc32)[C@@H](O)[C@@H]1O` [Example 5, 9-[5-O-(3-methylbutyryl)-β-D-arabinofuranosyl]-adenine], for which the solubility worked out at 16400 µg/mL (≈ 46.7 mM). Same read-out and setting: as for `CC(C)(C)C(=O)OC[C@H]1O[C@@H](n2cnc3c(N)ncnc32)[C@@H](O)[C@@H]1O` [Example 6, 9-[5-O-(2,2-dimethylpropionyl)-β-D-arabinofuranosyl]-adenine], the figure is 7000 µg/mL (≈ 19.9 mM); as for `CCCCCC(=O)OC[C@H]1O[C@@H](n2cnc3c(N)ncnc32)[C@@H](O)[C@@H]1O` [Example 7, 9-(5-O-hexanoyl-β-D-arabinofuranosyl)adenine], 2500 µg/mL (≈ 6.84 mM).

For the origin of these results see patent publication US4069382A, “9-(5-O-Acyl-β-D-arabinofuranosyl)adenine compounds” (Parke, Davis & Company, priority 1976, dated 1978).
